Structures can show the parent of a compound that is named as a salt.

T1 sequence (Q13639 1-387 isoform Q13639-2): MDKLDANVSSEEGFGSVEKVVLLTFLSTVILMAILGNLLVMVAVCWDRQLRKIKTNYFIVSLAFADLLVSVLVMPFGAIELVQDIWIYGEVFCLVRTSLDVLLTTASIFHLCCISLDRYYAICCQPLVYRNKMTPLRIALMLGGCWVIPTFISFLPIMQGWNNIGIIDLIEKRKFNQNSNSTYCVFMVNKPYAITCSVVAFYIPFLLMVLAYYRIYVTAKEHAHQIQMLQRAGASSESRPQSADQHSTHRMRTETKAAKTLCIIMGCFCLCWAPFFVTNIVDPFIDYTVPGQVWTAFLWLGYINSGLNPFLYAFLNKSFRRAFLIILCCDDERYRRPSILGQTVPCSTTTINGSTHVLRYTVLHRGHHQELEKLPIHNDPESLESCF

The experiment concerns the target T1, human 5-HT4(a) (Homo sapiens, UniProt Q13639).
T1 construct: host or cells: GeneBlAzer HTR4-CRE-bla CHO-K1 cells
The experiment is described as follows: Evaluation of agonistic activity in CHO-K1 cells expressing human 5-HT4(a) (GeneBlAzer HTR4-CRE-bla, beta-lactamase reporter). The experiment is classed as cell-based. To be noted: 5 hours incubation, 8 concentrations. Here is the method: Evaluation of Agonistic Activity in CHO-K1 Cells Expressing Human 5-HT4(a)
As CHO-K1 cells stably expressing human 5-HT4(a), we used the GeneBlAzer HTR4-CRE-bla CHO-K1 cells (Invitrogen corp.). The cells were cultured in DMEM medium supplemented with 10% bovine fetal serum (FBS), 25 mM HEPES (pH 7.4), 600 μg/ml Hygromycin B, 0.1 mM non-essential amino acids, 100 unit/ml penicillin and 100 μg/ml streptomycin under the condition of 37° C. and 5% CO2. Subcultures were performed three times per a week, each being at less than 80% confluence. At the previous day before treating test compounds, the cells were collected by using 0.5% trypsin/EDTA, and then diluted with a DMEM supplemented with 1% FBS, 25 mM HEPES and 0.1 mM non-essential amino acids into 3.125×10^5 cells/ml. 32 μl of the diluted cells were added into 384-well plate (10,000 cells/well) and then incubated overnight. The compounds to be used as a test material and a control drug were prepared as 500× of the various final treating concentrations of the drug with 100% DMSO, and then treated to the medium after diluting them to 100-folds to be 1% of the final DMSO concentration equally. After culturing overnight, 8 μl of the medium having 1% of DMSO was added into the cell-free control well and the non-stimulating control well, respectively. 8 μl of the control drug or the test material (which had been prepared by diluting 100-folds with the medium as mentioned in the above) having 1% of DMSO, were added to the respective remaining wells. After culturing in an incubator for 5 hours, the wells of the 384-plate were treated with the substrate solution (8 μl/well) prepared according to the vendor's instruction (i.e. Invitrogen's instruction), and then incubated in the dark room for additional 2 hours. Agonistic activities on 5-HT4 receptor were evaluated, on the basis of fluorescent values of the cleavage-products, which is generated cAMP-concentration dependently per equal time by beta-lactamase. After exciting to 410 nm of wavelength by using Genios Pro Fluorescence Detector, we measured the fluorescence values at two emission wavelengths (first wavelength: 465 nm, second wavelength: 535 nm). Data were analyzed on the basis of the ratio of fluorescence intensities of each well at the respective wavelengths. For all plates, the concentrations-response curve (1 pM-100 nM) of the control drug (Tegaserod) was included. Each EC50 values of the test compounds were calculated by non-linear regression analysis using GraphPad Prism program, based on the concentration-reactivity values according to 8-different concentrations of the test compounds.
In turn, `COc1cc2nc(Nc3cc(N)cc(C(F)(F)F)c3)nc(N3CC[C@H](NC(C)=O)C3)c2cc1OC` [Example 7, (S)—N-{1-(2-[{3-amino-5-(trifluoromethyl)-phenyl}amino]-6,7-dimethoxyquinazolin-4-yl)pyrrolidin-3-yl}acetamide] displayed an EC50 of 0.03 nM.

`COc1ccc2nc(Nc3cc(N)cc(C(F)(F)F)c3)nc(N3CC[C@H](NC(C)=O)C3)c2c1` [Example 14, (S)—N-{1-(2-[{3-amino-5-(trifluoromethyl)-phenyl}amino]-6-methoxyquinazolin-4-yl)pyrrolidin-3-yl}-acetamide] showed an EC50 of 0.02 nM. This EC50 is about 1.5-fold lower than that of the compound before. In turn, `COc1ccc2nc(Nc3cc(N)cc(C#N)c3)nc(N3CCC[C@@H](NC(C)=O)C3)c2c1` [Example 21, (R)—N-(1-[2-{(3-amino-5-cyanophenyl)-amino}-6-methoxyquinazolin-4-yl]piperidin-3-yl)acetamide] registered an EC50 of 0.01 nM.

Turning to `CC(=O)N[C@H]1CCN(c2nc(Nc3cc(N)cc(C#N)c3)nc3cc(C(F)(F)F)ccc23)C1` [Example 28, (S)—N-(1-[2-{(3-amino-5-cyanophenyl)amino}-7-(trifluoromethyl)quinazolin-4-yl]pyrrolidin-3-yl)-acetamide], the EC50 amounted to 0.39 nM.

Consider `N#Cc1cc(N)cc(Nc2nc(N3CC[C@H](N)C3)c3ccccc3n2)c1` [Example 31, (S)-3-amino-5-{4-(3-aminopyrrolidin-1-yl)-quinazolin-2-ylamino}benzonitrile dihydrochloride], for which the EC50 stood at 0.03 nM. Compared with the last compound, the EC50 is about 13-fold lower.

The compound `N#Cc1cc(N)cc(Nc2nc(N3CC[C@H](NC(=O)Cc4cccs4)C3)c3ccccc3n2)c1` [Example 37, (S)—N-[1-{2-(3-amino-5-cyanophenylamino)quinazolin-4-yl}pyrrolidin-3-yl]-2-(thiophen-2-yl)acetamide] returned an EC50 of 0.03 nM.

Turning to `CCCCCN[C@H]1CCN(c2nc(Nc3cc(N)cc(C#N)c3)nc3ccccc23)C1` [Example 41, (S)-3-amino-5-[4-{3-(pentylamino)-pyrrolidin-1-yl}quinazolin-2-ylamino]benzonitrile], the EC50 turned out to be 0.0024 nM. `CC(C)N[C@H]1CCN(c2nc(Nc3cc(N)cc(C#N)c3)nc3ccccc23)C1` [Example 46, (S)-3-amino-5-[4-{3-(isopropylamino)pyrrolidin-1-yl}quinazolin-2-ylamino]benzonitrile] displayed an EC50 of 0.05 nM. With `COc1cccc2c(N3CCC[C@@H](NC(C)=O)C3)nc(Nc3cc(N)cc(C(F)(F)F)c3)nc12` [Example 64, (R)—N-[1-{2-(3-amino-5-trifluoromethylphenylamino)-8-methoxyquinazolin-4-yl}piperidin-3-yl]acetamide], the midpoint of the response, the EC50, lay at 0.03 nM.

The compound `CN[C@H]1CCN(c2nc(Nc3cc(N)cc(C#N)c3)nc3cccc(C)c23)C1` [Example 68, (S)-3-amino-5-[5-methyl-4-{3-(methylamino)pyrrolidin-1-yl}quinazolin-2-ylamino]benzonitrile] registered an EC50 of 0.08 nM. Turning to `CC(=O)N[C@@H]1CCCN(c2nc(Nc3ccc(N)c(C(F)(F)F)c3)nc3c(C)cccc23)C1` [Example 80, (R)—N-(1-[2-{4-amino-3-(trifluoromethyl)phenylamino}-8-methylquinazolin-4-yl]piperidin-3-yl)acetamide hydrochloride], the EC50 turned out to be 0.04 nM. Compared with the last compound, the EC50 is about 2-fold lower. The value for `CC(=O)N[C@H]1CCN(c2nc(Nc3cc(N)cc(C#N)c3)nc3cc(Cl)ccc23)C1` [Example 81, (S)—N-[1-{2-(3-amino-5-cyanophenylamino)-7-chloroquinazolin-4-yl}pyrrolidin-3-yl]acetamide hydrochloride] was 0.06 nM; that for `CC(=O)N[C@H]1CCN(c2nc(Nc3cc(N)cc(C#N)c3)nc3cc(F)ccc23)C1` [Example 85, (S)—N-[1-{2-(3-amino-5-cyanophenylamino)-7-fluoroquinazolin-4-yl}pyrrolidin-3-yl]acetamide hydrochloride] was 0.04 nM; that for `CC(=O)N[C@H]1CCN(c2nc(Nc3cc(N)cc(C#N)c3)nc3c2CCCC3)C1` [Example 88, (S)—N-[1-{2-(3-amino-5-cyanophenylamino)-5,6,7,8-tetrahydroquinazolin-4-yl}pyrrolidin-3-yl]acetamide] was 0.01 nM. As to `CCN[C@H]1CCN(c2nc(Nc3cc(N)cc(C#N)c3)nc3c2CCCC3)C1` [Example 105, (S)-3-amino-5-[4-{3-(ethylamino)pyrrolidin-1-yl}-5,6,7,8-tetrahydroquinazolin-2-ylamino]benzonitrile dihydrochloride], the EC50 was determined as 0.01 nM. This lies in the picomolar range. `CNC(=O)[C@@H]1CCCN(c2nc(Nc3cc(N)cc(C(F)(F)F)c3)nc3c2CCCC3)C1` [Example 123, (R)-1-[2-{3-amino-5-(trifluoromethyl)phenylamino}-5,6,7,8-tetrahydroquinazolin-4-yl]-N-methylpiperidine-3-carboxamide]: it took 0.01 nM to reach a half-maximal effect (EC50). That is a picomolar value. For the compound `CC(=O)N[C@H]1CCN(c2nc(Nc3ccc(Cl)c(N)c3)nc3ccccc23)C1` [Example 133, (S)—N-(1-[2-{(3-amino-4-chlorophenyl)amino}quinazolin-4-yl]pyrrolidin-3-yl)acetamide], the EC50 was determined as 0.03 nM. Against the preceding compound, the EC50 is about 3-fold higher. With `CCN[C@H]1CCN(c2nc(Nc3cc(N)cc(C#N)c3)nc3ccccc23)C1` [Example 141, (S)-3-amino-5-([4-{3-(ethylamino)pyrrolidin-1-yl}quinazolin-2-yl]amino)benzonitrile], it took 0.01 nM to reach a half-maximal effect (EC50). This EC50 lies about 3-fold lower than the previous one. On to `COc1ccc2c(N3CC[C@H](NC(C)=O)C3)nc(Nc3cc(N)cc(C#N)c3)nc2c1` [Example 147, (S)—N-(1-[2-{(3-amino-5-cyanophenyl)amino}-7-methoxyquinazolin-4-yl]pyrrolidin-3-yl)acetamide], for which the EC50 was 0.01 nM. The figure for `CCCN[C@H]1CCN(c2nc(Nc3cc(N)cc(C#N)c3)nc3cccnc23)C1` [Example 159, (S)-3-amino-5-([4-{3-(propylamino)pyrrolidin-1-yl}pyrido[3,2-d]pyrimidin-2-yl]amino)benzonitrile dihydrochloride] is 0.01 nM.

`Nc1cc(Nc2nc(N3CCC[C@@H](N)C3)c3ncccc3n2)cc(C(F)(F)F)c1` [Example 167, (R)—N^1-{4-(3-aminopiperidin-1-yl)pyrido[3,2-d]pyrimidin-2-yl}-5-trifluoromethyl)benzene-1,3-diamine dihydrochloride]: the midpoint of the response, the EC50, lay at 0.09 nM. The figure for `CC(=O)N[C@H]1CCN(c2nc(Nc3cc(N)cc(C#N)c3)nc3c2CCC3)C1` [Example 168, (S)—N-(1-[2-{(3-amino-5-cyanophenyl)amino}-6,7-dihydro-5H-cyclopenta[d]pyrimidin-4-yl]pyrrolidin-3-yl)acetamide hydrochloride] is 0.01 nM; for `N#Cc1cc(N)cc(Nc2nc3c(c(N4CC[C@H](N)C4)n2)CCC3)c1` [Example 174, (S)-3-amino-5-[{4-(3-aminopyrrolidin-1-yl)-6,7-dihydro-5H-cyclopenta[d]pyrimidin-2-yl}amino]benzonitrile dihydrochloride] it is 0.02 nM. With `CCCN[C@H]1CCN(c2nc(Nc3cc(N)cc(C#N)c3)nc3c2CCC3)C1` [Example 184, (S)-3-amino-5-([4-{3-(propylamino)pyrrolidin-1-yl}-6,7-dihydro-5H-cyclopenta[d]pyrimidin-2-yl]amino)benzonitrile dihydrochloride], a half-maximal response (EC50) required 0.01 nM.

For the origin of these results see US20170152241A9, “BICYCLIC DERIVATIVE CONTAINING PYRIMIDINE RING, AND PREPARATION METHOD THEREFOR” (YUHAN CORPORATION, priority 2013, published 2017).
